According to US7462600B2, “Macrolides” (Pfizer Inc, priority 2004, dated 2008):
In brackets after ≈: the same amount, converted by molar mass. Read-outs that look alike come from different tables or passages of the source.

Key:
Format in all cases: cell-based
[1] = tested on: Streptococcus pneumoniae 1016; assay: MIC, microtiter broth dilution (NCCLS M100-S14), S. pneumoniae 1016 (susceptible)
Summary of the method: (§1)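 Minimum inhibitory concentration by broth microdilution in trays (NCCLS M100-S14); starting stocks 40 mg/ml, DMSO.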

[2] = tested on: Streptococcus pyogenes 1079; assay: MIC, microtiter broth dilution (NCCLS M100-S14), S. pyogenes 1079 (ermB)
Summary of the method: as §1

[3] = tested on: Streptococcus pneumoniae 1095; details: microtiter broth dilution
Summary of the method: as §1

[4] = tested on: Streptococcus pneumoniae 1175; details: microtiter broth dilution
Summary of the method: as §1

[5] = tested on: Haemophilus influenzae 1218; assay: MIC, microtiter broth dilution (NCCLS M100-S14), H. influenzae 1218 (susceptible)
Summary of the method: as §1

[6] = S. pneumoniae 1016 (susceptible)
[7] = H. influenzae 1218 (susceptible)

Row | SMILES | MIC S. pneumo. 1016 [1, 6] [µg/mL] | MIC S. pyogenes 1079 ([2]; S. pyogenes 1079 (ermB)) [µg/mL] | MIC S. pneumo. 1095 ([3]; S. pneumoniae 1095 (ermB)) [µg/mL] | MIC S. pneumo. 1175 ([4]; S. pneumoniae 1175 (mefA)) [µg/mL] | MIC H. influenzae 1218 [5, 7] [µg/mL] | MIC S. pneumo. 1016 ([1]; Streptococcus pneumoniae 1016) [µg/mL] | MIC S. pyogenes 1079 ([2]; Streptococcus pyogenes 1079) [µg/mL] | MIC S. pneumo. 1095 ([3]; Streptococcus pneumoniae 1095) [µg/mL] | MIC S. pneumo. 1175 ([4]; Streptococcus pneumoniae 1175) [µg/mL] | MIC H. influenzae 1218 ([5]; Haemophilus influenzae 1218) [µg/mL]
1 | CCC1OC(=O)C(C)C(=O)C(C)C(OC2OC(C)CC(N(C)C)C2O)C(C)(OC)CC(C)C(=O)C(C)C2N(CC3CCN(Cc4c[nH]c5cc(=O)[nH]cc45)C3)C(=O)OC12C (centres unmarked) [13.02] | 0.12 (≈ 0.143 µM) | 64 (≈ 76 µM) | 16 (≈ 19 µM) | 4 (≈ 4.75 µM) | 16 (≈ 19 µM) | – | – | – | – | –
2 | CCC1OC(=O)C(C)C(=O)C(C)C(OC2OC(C)CC(N(C)C)C2O)C(C)(OC)CC(C)C(=O)C(C)C2N(CC3CCCN3C(=O)c3cccn(Cc4ccccc4)c3=O)C(=O)OC12C (centres unmarked) [10.36] | <0.06 | >64.00 | 4 (≈ 4.41 µM) | 0.5 (≈ 0.551 µM) | 16 (≈ 17.6 µM) | – | – | – | – | –
3 | CC[C@H]1OC(=O)[C@H](C)C(=O)[C@H](C)[C@@H](O[C@@H]2O[C@H](C)C[C@H](N(C)C)[C@H]2O)[C@](C)(OC)C[C@@H](C)C(=O)[C@H](C)[C@H]2N(CC3(C)CN(Cc4ccc5nccnc5c4)C3)C(=O)O[C@]12C [6.04] | – | – | – | – | – | <0.06 | >64.00 | 0.25 (≈ 0.298 µM) | 0.25 (≈ 0.298 µM) | 1 (≈ 1.19 µM)
4 | CCC1OC(=O)C(C)C(=O)C(C)C(OC2OC(C)CC(N(C)C)C2O)C(C)(OC)CC(C)C(=O)C(C)C2N(C3CN(S(=O)(=O)c4cnc5ncccn45)C3)C(=O)OC12C (centres unmarked) [Example 3.17, 3-descladinosyl-11,12-dideoxy-6-O-methyl-3-oxo-12,11-(oxycarbonyl-(1-(imidazo[1,2-a]pyrimidine-3-sulfonyl)-azetidin-3-yl)-imino)-erythromycin A] | – | – | – | – | – | <0.06 | 4 (≈ 4.71 µM) | <0.06 | 0.12 (≈ 0.141 µM) | 0.5 (≈ 0.589 µM)
5 | CCC1OC(=O)C(C)C(=O)C(C)C(OC2OC(C)CC(N(C)C)C2O)C(C)(OC)CC(C)C(=O)C(C)C2N(C3CN(Cc4cccc5ccccc45)C3)C(=O)OC12C (centres unmarked) [Example 1.91, 3-descladinosyl-11,12-dideoxy-6-O-methyl-3-oxo-12,11-(oxycarbonyl-(1-(naphthalene-1-methyl)-azetidin-3-yl)-imino)-erythromycin A] | – | – | – | – | – | <0.063 | 8 (≈ 9.9 µM) | 0.125 (≈ 0.155 µM) | <0.063 | 1 (≈ 1.24 µM)
6 | CCC1OC(=O)C(C)C(=O)C(C)C(OC2OC(C)CC(N(C)C)C2O)C(C)(OC)CC(C)C(=O)C(C)C2N(C3CN(Cc4cccn5nccc45)C3)C(=O)OC12C (centres unmarked) [Example 1.83, 3-descladinosyl-11,12-dideoxy-6-O-methyl-3-oxo-12,11-(oxycarbonyl-(1-(H-pyrazolo[1,5-a]pyridine-4-methyl)-azetidin-3-yl)-imino)-erythromycin A] | – | – | – | – | – | <0.063 | 4 (≈ 5.01 µM) | <0.063 | <0.063 | 1 (≈ 1.25 µM)
7 | CCC1OC(=O)C(C)C(=O)C(C)C(OC2OC(C)CC(N(C)C)C2O)C(C)(OC)CC(C)C(=O)C(C)C2N(C3CN(Cc4ccncc4Cl)C3)C(=O)OC12C (centres unmarked) [Example 1.79, 3-descladinosyl-11,12-dideoxy-6-O-methyl-3-oxo-12,11-(oxycarbonyl-(1-(3-chloropyridine-4-methyl)-azetidin-3-yl)-imino)-erythromycin A] | – | – | – | – | – | <0.063 | 4 (≈ 5.04 µM) | <0.063 | <0.063 | 1 (≈ 1.26 µM)
8 | CC[C@H]1OC(=O)[C@H](C)C(=O)[C@H](C)[C@@H](O[C@@H]2O[C@H](C)C[C@H](N(C)C)[C@H]2O)[C@](C)(OC)C[C@@H](C)C(=O)[C@H](C)[C@H]2N(CC3(O)CN(Cc4cccc5nc[nH]c45)C3)C(=O)O[C@]12C [7.08] | <0.06 | >64.00 | <0.06 | 0.25 (≈ 0.302 µM) | 0.25 (≈ 0.302 µM) | – | – | – | – | –
9 | CCC1OC(=O)C(C)C(=O)C(C)C(OC2OC(C)CC(N(C)C)C2O)C(C)(OC)CC(C)C(=O)C(C)C2N(C3CN(S(=O)(=O)c4ccc(-n5ccnc5)c(C#N)c4)C3)C(=O)OC12C (centres unmarked) [Example 3.64] | – | – | – | – | – | <0.06 | 32 (≈ 35.6 µM) | <0.06 | <0.06 | 0.5 (≈ 0.556 µM)
10 | CC[C@H]1OC(=O)[C@H](C)C(=O)[C@H](C)[C@@H](O[C@@H]2O[C@H](C)C[C@H](N(C)C)[C@H]2O)[C@](C)(OC)C[C@@H](C)C(=O)[C@H](C)[C@H]2N(CC3(O)CN(Cc4ccc(-c5cncnc5)cc4)C3)C(=O)O[C@]12C [7.12] | <0.06 | >64.00 | >64.00 | 0.5 (≈ 0.577 µM) | 2 (≈ 2.31 µM) | – | – | – | – | –
11 | CCC1OC(=O)C(C)C(=O)C(C)C(OC2OC(C)CC(N(C)C)C2O)C(C)(OC)CC(C)C(=O)C(C)C2N(C3CN(S(=O)(=O)c4ccc5c(c4)N(C)S(=O)(=O)N5C)C3)C(=O)OC12C (centres unmarked) [Example 3.116, 3-descladinosyl-11,12-dideoxy-6-O-methyl-3-oxo-12,11-(oxycarbonyl-(1-(1,3-dimethyl-2,1,3-benzothiadiazole-2,2-dioxide-0-5-sulfonyl)-azetidin-3-yl)-imino)-erythromycin A] | – | – | – | – | – | <0.063 | 0.5 (≈ 0.539 µM) | <0.063 | <0.063 | 0.5 (≈ 0.539 µM)
12 | CCC1OC(=O)C(C)C(=O)C(C)C(OC2OC(C)CC(N(C)C)C2O)C(C)(OC)CC(C)C(=O)C(C)C2N(C3CN(S(=O)(=O)c4ccc(NC(C)=O)cc4)C3)C(=O)OC12C (centres unmarked) [Example 3.108, 3-descladinosyl-11,12-dideoxy-6-O-methyl-3-oxo-12,11-(oxycarbonyl-(1-(4-acetamidobenzene-1-sulfonyl)-azetidin-3-yl)-imino)-erythromycin A] | – | – | – | – | – | <0.063 | 0.25 (≈ 0.289 µM) | <0.063 | 0.5 (≈ 0.578 µM) | 1 (≈ 1.16 µM)
13 | CCC1OC(=O)C(C)C(=O)C(C)C(OC2OC(C)CC(N(C)C)C2O)C(C)(OC)CC(C)C(=O)C(C)C2N(C3CN(C(=O)c4cncc5ccccc45)C3)C(=O)OC12C (centres unmarked) [Example 2.01] | – | – | – | – | – | <0.06 | >64.00 | 32 (≈ 38.9 µM) | 0.25 (≈ 0.304 µM) | 4 (≈ 4.86 µM)
14 | CC[C@H]1OC(=O)[C@H](C)C(=O)[C@H](C)[C@@H](O[C@@H]2O[C@H](C)C[C@H](N(C)C)[C@H]2O)[C@](C)(OC)C[C@@H](C)C(=O)[C@H](C)[C@H]2N(CC3(C)CN(Cc4c[nH]c5ncccc45)C3)C(=O)O[C@]12C [6.03] | – | – | – | – | – | <0.06 | 16 (≈ 19.4 µM) | <0.06 | 0.12 (≈ 0.145 µM) | 0.5 (≈ 0.605 µM)
15 | CCC1OC(=O)C(C)C(=O)C(C)C(OC2OC(C)CC(N(C)C)C2O)C(C)(OC)CC(C)C(=O)C(C)C2N(C3CN(Cc4c(Br)cnc5ncccc45)C3)C(=O)OC12C (centres unmarked) [Example 1.75, 3-descladinosyl-11,12-dideoxy-6-O-methyl-3-oxo-12,11-(oxycarbonyl-(1-(3-bromo-1,8-naphthyridine-4-methyl)-azetidin-3-yl)-imino)-erythromycin A] | – | – | – | – | – | <0.063 | <0.063 | <0.063 | <0.063 | 1 (≈ 1.12 µM)
16 | CCC1OC(=O)C(C)C(=O)C(C)C(OC2OC(C)CC(N(C)C)C2O)C(C)(OC)CC(C)C(=O)C(C)C2N(CC3CCCN3Cc3ccno3)C(=O)OC12C (centres unmarked) [12.04] | <0.06 | >64.00 | 4 (≈ 5.15 µM) | 1 (≈ 1.29 µM) | 2 (≈ 2.57 µM) | – | – | – | – | –
17 | CCC1OC(=O)C(C)C(=O)C(C)C(OC2OC(C)CC(N(C)C)C2O)C(C)(OC)CC(C)C(=O)C(C)C2N(C3CN(C(=O)Nc4cccc5ncccc45)C3)C(=O)OC12C (centres unmarked) [Example 2.06, 3-descladinosyl-11,12-dideoxy-6-O-methyl-3-oxo-12,11-(oxycarbonyl-(1-(N-(quinolin-5-yl)-aminocarbonyl)-azetidin-3-yl)-imino)-erythromycin A] | – | – | – | – | – | <0.06 | >64.00 | 16 (≈ 19.1 µM) | 0.25 (≈ 0.298 µM) | 0.5 (≈ 0.597 µM)
18 | CCC1OC(=O)C(C)C(=O)C(C)C(OC2OC(C)CC(N(C)C)C2O)C(C)(OC)CC(C)C(=O)C(C)C2N(CC3CCN(C(=O)c4ccc5cnccc5n4)C3)C(=O)OC12C (centres unmarked) [13.09] | <0.06 | >64.00 | >64.00 | 1 (≈ 1.17 µM) | 4 (≈ 4.69 µM) | – | – | – | – | –
19 | CCC1OC(=O)C(C)C(=O)C(C)C(OC2OC(C)CC(N(C)C)C2O)C(C)(OC)CC(C)C(=O)C(C)C2N(C3CN(C(C)c4ccnc5ncccc45)C3)C(=O)OC12C (stereo not drawn) [Example 1.23, 3-descladinosyl-11,12-dideoxy-6-O-methyl-3-oxo-12,11-(oxycarbonyl-(1-(1S-(1,8-naphthyridin4-yl)-ethyl)-azetidin-3-yl)-imino)-erythromycin A] | – | – | – | – | – | <0.06 | 16 (≈ 19.4 µM) | <0.06 | 0.25 (≈ 0.303 µM) | 0.5 (≈ 0.607 µM)
